Source: patent US20170312200A1, “AN AGENT FOR IMPROVING MITOCHONDRIAL FUNCTION” (SHOWA DENKO K.K., priority 2014, published 2017)

What was measured:
Type in all cases: cell-based
[1] = system: human skin fibroblasts NB1-RGB cells; experiment: Effect on mitochondrial function improvement (JC-1 red/green fluorescence, mitochondrial membrane potential); conditions: aged cells (600 μM hydrogen peroxide), specimen 10 μM, 48 hours; relative value with normal cells as 1
Description: The effect on mitochondrial function improvement in human skin fibroblasts NB1-RGB cells was measured under the following conditions using a mitochondrial membrane potential as an index. By performing an operation for 4 days in which confluent NB1-RGB cells were cultured for one hour in a DMEM medium containing 10% fetal bovine serum and 600 μM hydrogen peroxide solution, cells induced of artificial aging by oxidation were prepared as aged cells. These aged cells and normal, unprocessed cells were prepared at a seeding density of 4,000 cells/cm^2 and cultured for 24 hours in the DMEM medium containing 10% fetal bovine serum. […] After changing a medium to new assay solution supplied in Assay Kit, a fluorescence intensity of the living cells was measured at an excitation wavelength of 520 to 570 nm and a fluorescence wavelength of 570 to 610 nm, and the dead cells at an excitation wavelength of 485 nm and a fluorescence wavelength of 535 nm. In order to evaluate the state of mitochondrial membrane potential, red fluorescence intensity and green fluorescence intensity of a cell group to be measured were measured, and values of red fluorescence intensity divided by green fluorescence intensity were calculated, and their relative values, with a measured value of the normal cells as 1, are shown in Table 3. […]

[2] = system: human skin fibroblasts NB1-RGB cells; experiment: Measurement of cells in which apoptosis had been caused (JC-1 green fluorescence, mitochondrial membrane potential as index); conditions: aged cells (600 μM hydrogen peroxide), specimen 10 μM, 48 hours; relative value with normal cells as 1
Description: The effect on mitochondrial function improvement in human skin fibroblasts NB1-RGB cells was measured under the following conditions using a mitochondrial membrane potential as an index. By performing an operation for 4 days in which confluent NB1-RGB cells were cultured for one hour in a DMEM medium containing 10% fetal bovine serum and 600 μM hydrogen peroxide solution, cells induced of artificial aging by oxidation were prepared as aged cells. These aged cells and normal, unprocessed cells were prepared at a seeding density of 4,000 cells/cm^2 and cultured for 24 hours in the DMEM medium containing 10% fetal bovine serum. […] After changing a medium to new assay solution supplied in Assay Kit, a fluorescence intensity of the living cells was measured at an excitation wavelength of 520 to 570 nm and a fluorescence wavelength of 570 to 610 nm, and the dead cells at an excitation wavelength of 485 nm and a fluorescence wavelength of 535 nm. In order to obtain a ratio of dead cells in which apoptosis had been caused, only the green fluorescence intensity of a cell group to be measured was measured, and relative values, with a measured value of the normal cells as 1, are shown in Table 2.

[3] = system: human skin fibroblasts NB1-RGB cells; experiment: Effect on promoting elastin production (Elastin Assay Kit); conditions: aged cells, 48 hours, normal cell = 1.00
Description: It is known that elastin is a fiber-like protein, which has a main function of crosslinking collagen, is present in the dermis of the skin, blood vessels, ligaments, and the like, and provides elasticity to the skin. The effect of a hydroxycitric acid derivative on elastin production was examined by the following method. The aged cells and normal, unprocessed cells which were produced in Example 1 were prepared at a seeding density of 4,000 cells/cm^2 and cultured for 24 hours in the DMEM medium containing 10% fetal bovine serum. The hydroxycitric acid derivatives according to the present invention which were dissolved in 50% ethanol to the final concentration of 0 μM (for a control), 0.01 μM, and 0.1 μM were added to the DMEM medium containing 10% fetal bovine serum, and culturing was performed for 48 hours. After that, cells were collected, elastin was extracted using Elastin Assay Kit manufactured by Biocolor Ltd., and an absorbance of the extracted solution was measured at a wavelength of 513 nm.

Row | Compound | Relative fluorescence intensity (red fluorescence intensity divided by green fluorescence intensity; effect on mitochondrial function improvement) [1] | Relative fluorescence intensity (green fluorescence of dead cells in which apoptosis had been caused) [2] | Relative absorbance (513 nm) (elastin production) ([3]; specimen 0.01 μM) | Relative absorbance (513 nm) (elastin production) ([3]; specimen 0.1 μM)
1 | Hydroxycitric acid-2-palmitate | 0.72 | 1.04 | 1.11 | 1.06
2 | CCCCCCCCCCCCCC(=O)OC(CC(=O)O)(C(=O)O)C(O)C(=O)O (centres unmarked) [Hydroxycitric acid-2-myristate] | 0.66 | 1.13 | 0.93 | 0.94
